In paper PMC12390684 (Viruses, 2025):
Where “and” joins values, the source holds several entries; their conditions need not be identical. Equal entries are not always repeated. Square brackets hold non-standard residues; d marks the D form. Peptide text beside a SMILES is read from it. dNMeL = CN[C@H](CC(C)C)C(=O)O; Hiv = CC(C)[C@H](O)C(=O)O

target: IN-GCN2 interaction (6xHis-IN / GST-GCN2) (UniProt P04585+Q9P2K8); experiment: biochemical; format: binding, HIV-1 IN; human GCN2; conditions: screen, single dose 100 µM, single replicate; residual AlphaLISA signal normalized to DMSO control
Sequence (Q9P2K8 192-1024, other chains not shown): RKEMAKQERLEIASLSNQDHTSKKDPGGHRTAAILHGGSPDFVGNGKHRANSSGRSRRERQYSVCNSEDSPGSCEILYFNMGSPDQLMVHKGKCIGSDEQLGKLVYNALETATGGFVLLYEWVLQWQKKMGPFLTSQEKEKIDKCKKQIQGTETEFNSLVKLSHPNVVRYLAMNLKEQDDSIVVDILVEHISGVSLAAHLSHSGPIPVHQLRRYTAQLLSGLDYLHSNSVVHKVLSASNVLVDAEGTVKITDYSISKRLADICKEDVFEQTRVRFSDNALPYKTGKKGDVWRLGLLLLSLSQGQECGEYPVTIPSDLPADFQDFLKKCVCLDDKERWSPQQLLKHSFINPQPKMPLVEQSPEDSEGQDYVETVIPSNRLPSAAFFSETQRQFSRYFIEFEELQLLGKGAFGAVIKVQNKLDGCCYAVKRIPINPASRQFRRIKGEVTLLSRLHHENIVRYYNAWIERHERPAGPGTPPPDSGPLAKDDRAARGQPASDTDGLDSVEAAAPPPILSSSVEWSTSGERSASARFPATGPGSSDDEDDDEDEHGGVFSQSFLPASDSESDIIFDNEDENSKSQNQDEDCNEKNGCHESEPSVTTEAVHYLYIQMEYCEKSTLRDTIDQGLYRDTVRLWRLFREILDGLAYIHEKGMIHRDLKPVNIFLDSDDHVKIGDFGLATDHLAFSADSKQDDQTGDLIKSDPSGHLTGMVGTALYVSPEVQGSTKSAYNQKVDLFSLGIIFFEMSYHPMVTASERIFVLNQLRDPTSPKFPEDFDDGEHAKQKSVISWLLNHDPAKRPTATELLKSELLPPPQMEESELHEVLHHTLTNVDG

Structure (SMILES) | IN-GCN2 interaction (%)
CC[C@]12CN3CCc4c([nH]c5ccccc45)[C@@](C(=O)OC)(c4cc5c(cc4OC)N(C)[C@H]4[C@@](O)(C(=O)OC)[C@H](OC(C)=O)[C@]6(CC)C=CCN7CC[C@]54[C@@H]76)C[C@@H](C3)[C@H]1O2 [NSC90636] | 49.62%
O=C1C=C([C@@H]2O[C@H](CO)[C@@H](O)[C@H]2O)C(=O)N1 [NSC93047] | 117.57%
C[C@]12CC[C@H]3[C@@H](CC[C@]4(O)C[C@@H](O)CC[C@]34/C=N/O)[C@@]1(O)CC[C@@H]2C1=COC(=O)C1 [NSC93373] | 116.21%
COc1cc2c3cc1Oc1c(O)c(OC)cc4c1[C@H](Cc1ccc(cc1)Oc1cc(ccc1O)C[C@H]3N(C)CC2)N(C)CC4 [NSC93674] | 63.45%
C[C@H]1O[C@@H](O[C@H]2[C@@H](O)C[C@H](O[C@H]3[C@@H](O)C[C@H](O[C@H]4CC[C@@]5(C)[C@H](CC[C@@H]6[C@@H]5CC[C@]5(C)[C@@H](C7=CC(=O)OC7)[C@@H](O)C[C@]65O)C4)O[C@@H]3C)O[C@@H]2C)C[C@H](O)[C@@H]1O [NSC95099] | 127.68%
CC(=O)OC1CCC2(C)C(=CCC3C2CCC2(C)C3CC3OC4(CCC(C)CN4)C(C)C32)C1 (stereo not shown) [NSC96021] | 132.69%
Cc1cc2nc3[nH]c(=O)[nH]c(=O)c3nc2cc1C [NSC96911] | 89.81%
O=C1CC=C2C3CC4N(CCC45c4ccccc4N1C25)C/C3=C\CO (stereo not shown) [NSC99791] | 109.54%
O=C1C[C@@H]2OCC=C3CN4CC[C@]56c7ccccc7N1[C@H]5[C@H]2[C@H]3C[C@]46O [NSC99792] | 109.08%
COc1cc2c(cc1OC)[C@@]13CCN4CC5=CCO[C@H]6CC(=O)N2[C@H]1[C@H]6[C@H]5C[C@]43O [NSC99794] | 103.59%
Oc1ccc(Cc2nccc3cc(O)c(O)cc23)cc1O [NSC99799] | 58.53%
C[C@H]1O[C@H](OC2[C@@H](O)[C@@H](O)C(O)[C@H](O)[C@H]2O)[C@@H](N)C[C@@H]1N=C(N)C(=O)O (stereo partly shown) [NSC100858] | 98.15%
Nc1ncn([C@@H]2O[C@H](CO)[C@@H](O)[C@H]2O)c(=O)n1 [NSC102816] | 106.78%
C=C1C(=O)O[C@H]2[C@H]1[C@H](OC(=O)/C(C)=C\C)C[C@]1(CO1)[C@@H]1[C@H](OC(C)=O)C=C(C)[C@]21O [NSC104943] | 118.84%
CCCCC[C@@H](O)[C@H]1C(=O)O[C@H](C)[C@@H](O)/C=C/C=C/C=C/C=C/C=C(\C)[C@@H](O)[C@H](O)[C@H](O)C[C@H](O)C[C@H](O)C[C@H](O)C[C@H](O)C[C@@H]1O [NSC105388] | 86.99%
NC(=S)c1cn(C2OC(CO)C(O)C2O)c2ncnc(N)c12 (stereo not shown) [NSC105827] | 100.77%
O=c1[nH]cnc2c([C@@H]3O[C@H](CO)[C@@H](O)[C@H]3O)[nH]nc12 [NSC106486] | 77.11%
COc1ccc(-c2oc3cc(O)c(OC)c(O)c3c(=O)c2OC)cc1O [NSC106969] | 98.61%
COC(=O)c1ccc(O)c2nc3c(C=O)c(O)cc(O)c3nc12 [NSC106995] | 28.53%
CC(CCC/C=C/CCCN(C)C(=N)N)CC(C)C1OC(=O)C(C)C(O)/C=C/C(C)C(O)C(C)C(O)C(C)C(O)CCCC(O)CC2(O)OC(CC(OC(=O)CC(=O)O)CC(O)CC(O)C(C)C(O)/C=C/C=C/C1C)CC(O)C2O (stereo not shown) [NSC107041] | 57.24%

Structure (SMILES) | IN-GCN2 interaction (%)
Cc1ccc(S(=O)(=O)NNC(=O)c2cc(C)c(C)cc2N)cc1 [NSC107453] | 88.25%
CCC1CN(C)C2Cc3c([nH]c4ccccc34)C(=O)CC1C2C(=O)OC (stereo not shown) [NSC108088] | 78.52%
N=C1C=C(N)C(=O)c2[nH]c(=O)ccc21 [NSC111041] | 43.78%
C[C@@H]1C[C@@H]2CCCC(O)=C2C(=O)O1 [NSC112906] | 126.27%
O=C1NC(O)CCN1[C@@H]1O[C@H](CO)[C@@H](O)[C@H]1O (stereo partly shown) [NSC112907] | 123.97%
CC1C(=O)OC2CCN3CC4OC4(COC(=O)C(C)(O)C1(C)O)C23 (stereo not shown) [NSC113087] | 97.53%
CC(=O)O[C@@H]1C[C@H]2C(C)(C)C(=O)C=C[C@]2(C)[C@H]2CC[C@@]3(C)[C@H](c4ccoc4)OC(=O)[C@H]4O[C@]43[C@@]21C [NSC113497] | 59.74%
COc1cc(/C=N\O)nc(-c2ccccn2)c1 [NSC114341] | 45.21%
CC[C@H](C)c1occ2c(O)c(C(=O)O)c(=O)cc-2c1C [NSC114344] | 113.54%
C/C=C/c1cc2c(c(=O)o1)C(=O)[C@@H](O)[C@H](C)O2 [NSC118343] | 125.37%
Br.CN1CCc2cc3c(cc2C1)OCO3 [NSC121859] | 114.20%
O=C(O)CC1OCC=C2CN3CCC45c6ccccc6NC4C1C2CC35 (stereo not shown) [NSC121860] | 104.59%
COc1cc2c(cc1OC)C13CCN4CC5=CCOC(CC(=O)O)C(C5CC41)C3N2 (stereo not shown) [NSC121865] | 122.60%
CC(C)[C@@H]1NC(=O)[C@H](C)OC(=O)[C@@H](C(C)C)NC(=O)[C@@H](C(C)C)OC(=O)[C@H](C(C)C)NC(=O)[C@H](C)OC(=O)[C@@H](C(C)C)NC(=O)[C@@H](C(C)C)OC(=O)[C@H](C(C)C)NC(=O)[C@H](C)OC(=O)[C@@H](C(C)C)NC(=O)[C@@H](C(C)C)OC1=O [NSC122023] | 63.87%
CC(C)C[C@@H]1NC(=O)[C@H](C(C)C)NC(=O)[C@H](C(C)C)OC(=O)[C@@H](CC(C)C)N(C)C(=O)[C@@H](C(C)C)NC(=O)[C@H](C(C)C)OC1=O [NSC122224] (cyclo([Hiv]VL[Hiv][dV][dNMeL])) | 110.56%
COC1=C2C[C@@H](C)C[C@H](OC)[C@H](O)[C@@H](C)/C=C(\C)[C@H](OC(N)=O)[C@@H](OC)/C=C\C=C(/C)C(=O)NC(=CC1=O)C2=O [NSC122750] | 116.21%
COc1cc([C@@H]2c3cc4c(cc3[C@@H](O[C@@H]3O[C@@H]5CO[C@@H](c6cccs6)O[C@H]5[C@H](O)[C@H]3O)[C@H]3COC(=O)[C@H]23)OCO4)cc(OC)c1O [NSC122819] | 96.83%
COc1ccc(-c2cc(=O)c3ccc(O)cc3o2)cc1OC [NSC123383] | 118.02%
COc1c(O)ccc2c1CN1CCc3cc4c(cc3C1C2)OCO4 (stereo not shown) [NSC123389] | 87.65%
CO[C@H]1[C@@H](O)[C@@H](C)O[C@@H](OC2CCC3(C)C(CCC4C3C(O)CC3(C)C(C5=CC(=O)OC5)CCC43O)C2)[C@@H]1O (stereo partly shown) [NSC123977] | 127.41%

Structure (SMILES) | IN-GCN2 interaction (%)
CCC(C)(O)c1cnc(CC(C)C)c(=O)n1O (stereo not shown) [NSC127445] | 137.47%
O=C(O)/C=C/CC[C@@H]1SC[C@@H]2NC(=O)N[C@@H]21 [NSC127473] | 109.13%
COC1=CC23CCCN2CCc2cc4c(cc2C3C1O)OCO4 (stereo not shown) [NSC128487] | 118.57%
C=C1C(=O)OC2CCN3CC=C(COC(=O)C(C)(O)C4(CO4)C1C)C23 (stereo not shown) [NSC129230] | 110.22%
CC(C)(O)[C@@H]1[C@H]2OC(=O)[C@@H]1[C@]1(O)C[C@H]3O[C@]34C(=O)O[C@H]2[C@]14C [NSC129536] | 112.62%
CC[C@](C)(O)C(=O)O[C@H]1C(=O)O[C@@H]2C[C@H]3C(C)=CC(=O)[C@@H](O)[C@]3(C)[C@H]3[C@@]4(O)OC[C@]32[C@@H]1[C@@H](C)[C@H]4O [NSC132791] | 89.72%
CO[C@H]1/C=C/O[C@@]2(C)Oc3c(C)c(O)c4c(O)c(cc(O)c4c3C2=O)NC(=O)/C(C)=C\C=C\[C@H](C)[C@H](O)[C@@H](C)[C@@H](O)[C@@H](C)[C@H](OC(C)=O)[C@@H]1C [NSC133100] | 111.79%
CCCCCCCCCCCCCCCC(=O)OC[C@H]1O[C@@H](n2ccc(N)nc2=O)[C@@H](O)[C@@H]1O [NSC135962] | 92.71%
NCCOC[C@H](N)C(=O)O [NSC136035] | 90.45%
COC1CCC(OC2CC(C3(C)CCC4(CC(O)C(C)C(C(C)/C=C(\C)C(=O)C(C)CC(C)C(=O)O)O4)O3)OC3(OC(C4OC(O)(CO)C(C)CC4C)CC3C)C2C)OC1C (stereo not shown) [NSC138320] | 102.91% and 57.85%
COC1C(=O)CCC2(CO2)C1(O)C1(C)OC1CC=C(C)C (stereo not shown) [NSC141538] | 103.23%
C/C(=C\COc1ccc2ccc(=O)oc2c1)C1=CC(=O)C(C)(C)O1 [NSC142227] | 94.46%
Cl.NC(=O)c1cn(C2OC(CO)C(O)C2O)c2ncnc(N)c12 (stereo not shown) [NSC143648] | 113.09%
CC(=O)C(=O)N[C@@H]1/C=C(C)/C=C/[C@@H](O)C/C=C(C)/C=C/[C@@H](O)C[C@H]2OC(=O)[C@]1(C)C(=O)[C@@H]2C [NSC145118] | 98.66%
C=C1C(=O)OCC2C(C(=O)O)=CC3C(C)C(C)=CC123 (stereo not shown) [NSC145150] | 111.51%
CO[C@@H]1/C=C\O[C@]2(C)Oc3c(C)c(O)c4c(O)c(c(CN(C)C)c(O)c4c3C2=O)NC(=O)/C(C)=C\C=C[C@@H](C)[C@@H](O)[C@H](C)[C@@H](O)[C@H](C)[C@H](OC(C)=O)[C@@H]1C [NSC145612] | 71.81%
COc1cc2c(cc1OC)C(OC)N(C)c1c-2ccc2cc3c(cc12)OCO3 (stereo not shown) [NSC146396] | 90.77%
COc1ccc(C[C@@H]2NC[C@@H](O)[C@@H]2OC(C)=O)cc1.Cl [NSC147340] | 88.95%

same assay, conditions: screen, single dose 100 µM, single replicate; residual AlphaLISA signal normalized to DMSO control; listed as 94600

Structure (SMILES) | IN-GCN2 interaction (%)
CC[C@@]1(O)C(=O)OCc2c1cc1n(c2=O)Cc2cc3ccccc3nc2-1 [NSC94600] | 48.96%

same assay, conditions: screen, single dose 100 µM, single replicate; residual AlphaLISA signal normalized to DMSO control; listed as 99843

Structure (SMILES) | IN-GCN2 interaction (%)
N#Cc1cn([C@@H]2O[C@H](CO)[C@@H](O)[C@H]2O)c2ncnc(N)c12 [NSC99843] | 116.98%

same assay, conditions: screen, single dose 100 µM, single replicate; residual AlphaLISA signal normalized to DMSO control; listed as 100880

Structure (SMILES) | IN-GCN2 interaction (%)
CC[C@@]1(O)C(=O)OCc2c1cc1n(c2=O)Cc2cc3ccccc3nc2-1 [NSC100880] | 95.24%
